Results published in patent US20130079274A1, “PHARMACEUTICAL COMPOSITIONS FOR TREATING DYSREGULATED INFLAMMATORY DISEASES” (priority 2009, published 2013).
Ends that are not written are not given here.

Key:
[1] = tested on: CLP-induced polymicrobial sepsis; assay: Mortality after cecal ligation and puncture (CLP) polymicrobial sepsis; type: in vivo, C57BL/6-mice; conditions: over 96 h
From the text: Maintenance and use of the animals were in accord with the German Animal Welfare Legislation. All experiments were approved by the local institutional animal care and research advisory committee and permitted by the local government of Lower Saxony (Germany). 47 male C57BL/6-mice (Charles River, Germany) with a weight of 20±3 g were used for the study. All animals were handled at room temperature for 14 days before treatment. Animals were maintained under standardized conditions with a controlled environment at 21±2° C., relative humidity of 50% and artificial light (14 hours light, 10 hours dark). They received a commercial pellet diet (altromin 1317) and water ad libitum. Analgetic treatment was performed in all animals (200 mg/kg body weight (BW) metamizol-sodium, Novalgin®, Hoechst, Unterschleiβheim, Germany) throughout the study.
All surgical procedures were performed after deeply anaesthetizing the animals with isoflurane. The mice were warmed to 36° C. using infrared warming lamps after having finished the surgical procedures. All mice received once daily subcutaneous injections of 1 ml sterile ringer's lactate for fluid replacement.
The surgical procedure was as follows: the cecum was exposed after a midline laparotomy and ligated distal to the ileocecal valve. Subsequently, the cecum was punctured twice using a 21 G needle and was returned to the abdominal cavity. […]

peritoneal macrophages = assay: Cytokine and chemokine secretion of isolated peritoneal macrophages after CLP; conditions: cells isolated 24 h after CLP, cultured 24 h; vs control, p>0.05
Description: The control group received saline as vehicle, the study group was substituted with 4 μg/kg MALP-2 i.p simultaneously to cecal ligation and puncture (CLP). All animals underwent CLP for induction of polymicrobial sepsis.
Peritoneal macrophages were isolated by lavage of the peritoneal cavity with 3×5 ml PBS containing 10 IU/ml heparin (Ratiopharm) 24 hours after CLP. Thereafter, cells were washed once with PBS and centrifuged at 400×g for 15 minutes at 4° C. The pellet was resuspended in 5 ml RPMI (Biochrom) containing 10% FCS and antibiotics (50 U/ml penicillin, 50 μg/ml streptomycin, Invitrogen; 2.5 μg/ml Amphotericin B, Biochrom). 106 cells were plated in a 24-well plate and incubated for 24 hours at 37° C., 95% humidity, and 5% CO2. At the end of the incubation period, the supernatants were removed and stored at −80° C. until analysis was performed.
Cytokine and chemokines in plasma and cell culture supernatant were measured with Multiplex and Simplex Kits according to manufacturer's instructions (BenderMed Systems, Vienna, Austria).

[2] = tested on: CLP-induced polymicrobial sepsis; assay: Activity score after CLP; type: in vivo, C57BL/6-mice; conditions: 4 μg/kg i.p. simultaneously to CLP, vs control
Description: The surgical procedure was as follows: the cecum was exposed after a midline laparotomy and ligated distal to the ileocecal valve. Subsequently, the cecum was punctured twice using a 21 G needle and was returned to the abdominal cavity. The model also includes the protrusion of contents of the cecum to assure the presence of bacteria in the peritoneum. The closure of the abdomen was performed with double layer sutures. Data were obtained 4, 24 and 96 hours after surgery. Clinical data concerning mortality and activity were obtained once daily until 96 hours after instrumentation.
As a measure for clinical status, activity of mice was analyzed by using a previously established scoring system, see table 1. Within this score, the spontaneous activity, spontaneous food intake and response to exogenous stimuli was analyzed. The scoring of each animal (from 1=moribund to 6=very active) was independently performed in a blinded fashion by two persons and the mean of both values was recorded.

sepsis-related mortality = conditions: pretreatment four days before sepsis induction; cited from earlier work
[3] = tested on: sepsis, septic shock and MODS; conditions: patients with sepsis; cited from earlier work

Substance | total mortality ([1]; 4 μg/kg BW i.p. simultaneously to CLP, control 62.5%, p=0.031) [%] | mortality ([1]; MALP-2 i.p. 6 hours following CLP, p=0.047 vs vehicle) [%] | IL-6, IL-10, TNF-α, MCP-1, MCP-3 or GM-CSF of peritoneal macrophages (peritoneal macrophages) | activity rates (activity score, table 1) ([2]; 24 to 72 hours following CLP, p<0.05) | activity rates (activity score, table 1) ([2]; after 96 hours) | protection against sepsis-related mortality (sepsis-related mortality) | reduction of death of affected patients [3] [%]
Macrophage-activating lipopeptide-2 (GNNDESNISFKEK; not fully specified) [MALP-2] | 12.5 | 22.2 | No differences | increased | comparable between both groups | partial protection | 
activated protein C |  |  |  |  |  |  | 6.1
